Reference: patent publication US20090047243A1, “COMBINATIONS FOR THE TREATMENT OF B-CELL PROLIFERATIVE DISORDERS” (priority 2007, published 2009)
Structures can show the parent of a compound that is named as a salt. Where two headings read alike, the source gives them in different places.

Columns and labels:
[1] = system: H929 multiple myeloma cell line; test: Anti-proliferation assay (ATPLite, 72 h); type: cell-based, human; parameters: key: S = lnfX·lnfY·ΣIdata(Idata−ILoewe), volume over Loewe additivity
Experimental: (§1) ANBL6 and INA-6 culture media was also supplemented with 10 ng/ml IL-6. […] MM.1S, MM.1R, OCI-ly10, Karpas 422, and SU-DHL6 cells were provided by the Dana Farber Cancer Institute. H929, RPMI-8226, GA-10, and Farage cells were from ATCC (Cat #'s CCL-155, CRL-9068, CRL-2392 and CRL-2630 respectively). MOLP-8, EJM, KSM-12-PE, and OPM2 were from DSMZ. The ANBL6 and INA-6 cell lines were provided by the M. D. Anderson Cancer Research Center. Compounds were prepared in DMSO at 1000× the highest desired concentration. Master plates were generated consisting of serially diluted compounds in 2- or 3-fold dilutions in 384-well format. For single agent dose response curves, the master plates consisted of 9 individual compounds at 12 concentrations in 2- or 3-fold dilutions. For combination matrices, master plates consisted of individual compounds at 6 or 9 concentrations at 2- or 3-fold dilutions. […] To obtain combination data, two master plates were diluted into the assay plates. […] Thirty microliters of ATPLite (Perkin Elmer) at room temperature was then added to each well. […] Measurements were taken at the top of the well using a luminescence aperture and a read time of 0.1 seconds per well. The percent inhibition (% I) for each well was calculated using the following formula: % I=[(avg. untreated wells-treated well)/(avg. untreated wells)]×100. […] Negative inhibition values result from local variations in treated wells as compared to untreated wells. […] The uncertainty of each fitted parameter was estimated from the range over which the change in reduced chi-squared was less than one, or less than minimum reduced chi-squared if that minimum exceeded one, to allow for underestimated σI errors. Single agent curve data were used to define a dilution series for each compound to be used for combination screening in a 6×6 matrix format. […] The Loewe additivity model was used to quantify combination effects. […] A “Synergy Score” was also used, where the Synergy Score S=log fX log fY ΣIdata(Idata-ILoewe), summed over all non-single-agent concentration pairs, and where log fX,Y is the natural logarithm of the dilution factors used for each single agent. This effectively calculates a volume between the measured and Loewe additive response surfaces, weighted towards high inhibition and corrected for varying dilution factors. An uncertainty σS was calculated for each synergy score, based on the measured errors for the Idata values and standard error propagation.

[2] = system: human multiple myeloma cells (MM.1S); test: Anti-proliferation assay (ATPLite, 72 h); type: cell-based; parameters: key to synergy score / synergy (score), PDEi × HE-NECA: S = lnfX·lnfY·ΣIdata(Idata−ILoewe), volume over Loewe additivity; conditions: for inhibition at 0.256 µM / inhibition at 0.767 µM / inhibition at 2.3 µM / inhibition at 6.9 µM / inhibition at 20.7 µM: Homo sapiens, MM1.S, read-out: percent inhibition of ATP in MM.1S cells; for inhibition at 0.256 µM: Papaverine 0.256 μM; for inhibition at 0.767 µM: Papaverine 0.767 μM; for inhibition at 2.3 µM: Papaverine 2.3 μM; for inhibition at 6.9 µM: Papaverine 6.9 μM; for inhibition at 20.7 µM: Papaverine 20.7 μM
Experimental: as §1

[3] = system: phosphodiesterase (PDE) types; conditions: PDE type(s) in brackets after the name; cited from earlier work
[4] = system: RPMI-8226 multiple myeloma cell line; test: Anti-proliferation assay (ATPLite, 72 h); type: cell-based, human; parameters: key: S = lnfX·lnfY·ΣIdata(Idata−ILoewe), volume over Loewe additivity
Experimental: as §1

[5] = system: human multiple myeloma cells (MM.1R); test: Anti-proliferation assay (ATPLite, 72 h); type: cell-based; parameters: key: S = lnfX·lnfY·ΣIdata(Idata−ILoewe), volume over Loewe additivity
Experimental: as §1

[6] = system: human multiple myeloma cells (MM.1R) transfected with siRNA; test: Anti-proliferation assay after siRNA transfection; type: cell-based; conditions: MM.1R, siRNA targeting PDE 2A, HE-NECA 0 nM
Experimental: siRNA to adenosine receptor A1, A2A, A3, PDE 2A, PDE 3B, PDE 4B, PDE 4D and PDE 7A, and control siRNA siCON were purchased from Dharmacon. A2B siRNA was purchased from Invitrogen. Electroporations were performed using an Amaxa Nucleoporator (program S-20) and solution V. siRNAs were used at 50 nM. […] RNA was isolated using Qiagen RNAeasy kits, and targets quantified by RT-PCR using gene specific primers purchased from Applied Biosystems.
Cells were added to 384-well plates 24 hours prior to compound addition such that each well contained 2000 cells in 35 μL of media. Master plates were diluted 100× (1 μL into 100 μL) into 384-well dilution plates containing only cell culture media. 4.5 μL from each dilution plate was added to each assay plate for a final dilution of 1000×. To obtain combination data, two master plates were diluted into the assay plates. Following compound addition, assay plates were kept at 37° C. and 5% CO2 for 72 hours. Thirty microliters of ATPLite (Perkin Elmer) at room temperature was then added to each well. Final amount of ATP was quantified within 30 minutes using ATPLite luminescent read-out on an Envision 2103 Multilabel Reader (Perkin Elmer). Measurements were taken at the top of the well using a luminescence aperture and a read time of 0.1 seconds per well.
We also examined the antiproliferative activity of adenosine receptor agonists when the MM cell line MM.1R was transfected with siRNA targeting the A1, A2A, A2B or A3 receptor. Specific gene silencing (A1, A2A, A2B, or A3) was greater than 50% as determined by real time PCR analysis 48 hours post-transfection. At 48 hours post-transfection, cells were exposed to adenosine receptor agonist, incubated an additional 72 hours, and compounds assayed for antiproliferative activity. Representative data is in Table 34. Cells transfected with adenosine receptor siRNA or a control siRNA (scrambled sequences designed so that cellular transcriptsare not targeted) were treated with the adenosine receptor agonist ADAC. […] Similar results were obtained with a second siRNA with specificity for different region of the A2A receptor mRNA, confirming that the reduction in adenosine receptor agonist activity is the result of specific siRNA targeting of the A2A receptor (data not shown).
In our experiments, PDE gene silencing was always greater than 50% as confirmed by real time PCR analysis 48 hours post-transfection. At 48 hours post-transfection, cells were exposed to adenosine receptor agonist and PDE inhibitor, incubated an additional 72 hours, and compounds assayed for antiproliferative activity. Representative data is in Tables 39-45. For each analysis, the activity of cells transfected with an siRNA targeting a specific PDE was compared to cells transfected with a control non-targeting siRNA (siCON).

[7] = PDE inhibitor crossed with (S) ENBA, H929
[8] = PDE inhibitor crossed with Chloro-IB-MECA, H929
[9] = PDE inhibitor crossed with HE-NECA, H929
[10] = PDE inhibitor crossed with (S) ENBA, MM.1S
[11] = PDE inhibitor crossed with Chloro-IB-MECA, MM.1S
[12] = PDE inhibitor crossed with HE-NECA, MM.1S
[13] = in combination with adenosine receptor agonist HE-NECA, H929
[14] = in combination with adenosine receptor agonist HE-NECA, RPMI-8226
[15] = in combination with adenosine receptor agonist HE-NECA, MM.1S
[16] = PDE inhibitor crossed with ADAC, H929
[17] = PDE inhibitor crossed with ADAC, MM.1S
[18] = 10 ng/mL IL-6, HE-NECA conc. (μM)

Compound	synergy score [1, 7]	synergy score [1, 8]	synergy score [1, 9]	synergy score [2, 10]	synergy score [2, 11]	synergy score [2, 12]	PDE inhibitors (specificity) [3]	synergy score [1, 16]	synergy score [2, 17]	other results
CC(=O)CCCCn1c(=O)c2c(ncn2C)n(C)c1=O [Pentoxifylline]	0.02	0.02	0.09	0.49	0.05	0.29	Pentoxifylline (pan)			
CN/C(=N\c1ccc(C2=NNC(=O)CC2C)cc1)NC#N (stereo not drawn) [Siguazodan]	0.13	0.09	0.08	1.39	0.42	0.72	Siguazodan (3)			
Cc1[nH]c(=O)c(C#N)cc1-c1ccncc1 [milrinone]		0.08	0.15	1.31	0.25	0.33	Milrinone (3)			
COc1ccc([C@@H]2CNC(=O)C2)cc1OC1CCCC1 [R-(−)-Rolipram]										synergy (score), PDEi × HE-NECA ([1]; 6×6 cross of PDE inhibitor or PDE inhibitor mixture with HE-NECA, H929): 1.88; synergy score ([1]; in combination with adenosine receptor agonist CGS-21680, H929): 1.93; synergy score [1, 13]: 2.148; synergy score ([1]; in combination with adenosine receptor agonist regadenoson, H929): 1.91; synergy score ([4]; in combination with adenosine receptor agonist CGS-21680, RPMI 8226): 2.03; synergy score [4, 14]: 1.16; synergy score ([4]; in combination with adenosine receptor agonist regadenoson, RPMI 8226): 0.63; synergy (score), PDEi × HE-NECA ([2]; 6×6 cross of PDE inhibitor or PDE inhibitor mixture with HE-NECA, MM.1S): 2.33; synergy score ([2]; in combination with adenosine receptor agonist CGS-21680, MM.1S): 1.92; synergy score [2, 15]: 2.965; synergy score ([2]; in combination with adenosine receptor agonist regadenoson, MM.1S): 1.83; synergy score ([5]; in combination with adenosine receptor agonist CGS-21680, MM.1R): 4.54; synergy score ([5]; in combination with adenosine receptor agonist regadenoson, MM.1R): 3.62; Antiproliferative activity ([6]; R-(−)-Rolipram 0.23 μM): 3.8; Antiproliferative activity ([6]; R-(−)-Rolipram 2 μM): 8.1; Antiproliferative activity ([6]; R-(−)-Rolipram 6.1 μM): 5.3; Antiproliferative activity ([6]; R-(−)-Rolipram 18 μM): 7.7; Antiproliferative activity ([6]; R-(−)-Rolipram […]): −1.2
CCOC(=O)C1=C[C@]2(CC)CCCN3CCc4c(n1c1ccccc41)[C@@H]32 [Vinoceptine]	0.21		0	0.25		0.26	Vinoceptine (1)	0.01	0.02	
COc1ccc(Cc2nccc3cc(OC)c(OC)cc23)cc1OC [Papaverine hydrochloride, 1-[(3.4-dimethoxyphenyl)-methyl]-6,7-dimethoxyisoquinolone]	0.77	1.42	1.03	2.24	2.67	2.09		1.19	3.55	synergy score ([1]; in combination with adenosine receptor agonist ADAC, H929): 1.193; synergy score [1, 13]: 1.025; synergy score ([4]; in combination with adenosine receptor agonist ADAC, RPMI-8226): 1.158; synergy score [4, 14]: 0.3933; inhibition at 0.256 µM [2, 18]: -2.4%; inhibition at 0.767 µM [2, 18]: -0.1%; inhibition at 2.3 µM [2, 18]: 7.9%; inhibition at 6.9 µM [2, 18]: 46%; inhibition at 20.7 µM [2, 18]: 70%; inhibition at 0.256 µM ([2]; no IL-6, HE-NECA conc. (nM)): 9.1%; inhibition at 0.767 µM ([2]; no IL-6, HE-NECA conc. (nM)): 8.8%; inhibition at 2.3 µM ([2]; no IL-6, HE-NECA conc. (nM)): 23%; inhibition at 6.9 µM ([2]; no IL-6, HE-NECA conc. (nM)): 46%; inhibition at 20.7 µM ([2]; no IL-6, HE-NECA conc. (nM)): 68%; synergy score ([2]; in combination with adenosine receptor agonist ADAC, MM.1S): 3.554; synergy score [2, 15]: 2.087; synergy score ([5]; in combination with adenosine receptor agonist ADAC, MM.1R): 3.395; synergy score ([5]; in combination with adenosine receptor agonist HE-NECA, MM.1R): 2.128
CC(C)Cn1c(=O)n(C)c(=O)c2[nH]cnc21 [IBMX]				0.055			IBMX (pan)			
(R)-Rolipram	0.82	0.63	2.51	2.08	0.84	4.38	(R)-Rolipram (4)	0.51	0.97	
Nc1nc(N)nc(-c2cc(Cl)ccc2Cl)n1 [Irsogladine]	0.09	0.05		0.38	0.25		Irsogladine (4)			
